# Measured values taken from patent US7148193B2, “Compounds that bind to growth hormone receptor” (Antyra, Inc., priority 1997, dated 2006).
# Where a SMILES comes first, the peptide text is derived from it. Bridges are numbered along the chain shown (N, C = ends).
# Columns and labels:
# rGHBP [1] = biological target: T1, rGHBP (Rattus norvegicus, UniProt P16310); assay: BIAcore affinity measurements of bPeptide binding to rGHBP; settings: BIAcore appKD and phage competition
# T1 construct: 1–48 of GHBP; The 3′ oligo used for this reaction encoded the mutation L43R (CTG→AGA); The second PCR reaction amplified the DNA encoding amino acids 38–260; 6xHis; made in house
# T1 sequence (P16310 19-278 isoform P16310-2): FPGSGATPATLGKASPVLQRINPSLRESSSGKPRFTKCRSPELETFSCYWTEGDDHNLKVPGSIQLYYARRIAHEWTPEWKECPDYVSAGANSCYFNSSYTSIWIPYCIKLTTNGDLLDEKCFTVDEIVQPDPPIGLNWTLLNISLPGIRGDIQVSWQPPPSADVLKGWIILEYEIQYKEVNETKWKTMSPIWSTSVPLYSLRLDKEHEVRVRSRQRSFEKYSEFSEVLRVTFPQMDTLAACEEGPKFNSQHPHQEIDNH
# Procedure: GHBP was immobilized onto one flow-cell of a CM-5 sensor chip (Biosensor) using amine coupling chemistry and the manufacturer's recommended protocol. An unrelated IgG was immobilized in the same manner to another flow cell of the same chip as a control surface. Increasing concentrations of synthetic peptide were injected over both surfaces, and the binding responses were allowed to come to equilibrium. After subtraction of background binding from the control surface, the results were used to derive an equilibrium dissociation constant using Scatchard analysis.
# The rat GHBP (100 μg/ml) was immobilized onto a CM-5 sensor chip using amino coupling chemistry and the manufacturer's recommended protocol. The final surface density was 4000 RU. A monoclonal antibody was immobilized onto another flow cell as a control surface. Peptides (50 μg/ml) were injected at a flow rate of 5 μl/min. Background binding to the control surface was subtracted prior to further analysis.
# rGHBP [2] = biological target: T1, rGHBP; assay: Time-resolved fluorometric detection (TRFD) of specific bLigand binding to rGHBP and its competition; settings: TRFD
# Procedure: For this invention, saEu forms a ternary complex with bP and rGHBP (i.e., the rGHBP:bP:saEu complex). As described herein, the TRFD assay is performed using biotinylated GH (bGH) as bLigand. Biotinylated H5-mutant peptides bP#447 (SEQ ID NO:11) and bP#418 (SEQ ID NO:12) are also used as bLigand (see below). The TRFD assay described herein faithfully reports the competition of ligand binding to the active site of rGHR. To perform the TRFD assays, soluble rGHBP is attached to the surface of microtiter wells, then incubated with bP. Unbound bP is than washed away and (sa)Eu is added to complex with receptor bound bP. The rGHBP:bP bound (sa)Eu is then converted into its highly fluorescent state and detected by TRFD.
# Wells were coated with rGHBP(100 ng/well) overnight as described. ED50 and IC50 were calculated from analysis of specific bLigand binding to rGHBP. Competitors were added 1 hr prior to addition of bLigand as described.
# rGHBP (50–200 μg/ml in 50 mM NaHCO3) was coated onto low-fluorescence MaxiSorp (Nunc) plates (100 μl/well) overnight at 4° C. The plates were blocked with PBS containing 2% non-fat milk and 0.05% BSA for 2 hr at room temperature, followed by three PBS washes. For competitions, serial dilutions of unlabelled growth hormone (0.1 nM-100 nM) or MAb 2C3 (0.67–67 nM) were added to the plates (100 μl/well) and incubated at room temperature for 1–2 hr. Biotinylated peptide or biotinylated GH (10× concentrations) were incubated in blocking buffer for 30 min to decrease non-specific binding. Ten microliters of the 10× concentrated material was added to the plates and incubated at room temperature for 1 hr to overnight.
# The plates were then washed five times with Tris-buffered saline (pH 7.5) containing 0.1% Tween-20 (TTBS). To each well, 100 μl of europium-labeled streptavidin in DELFIA assay buffer (100 mM Tris-HCl, pH 7.8; 150 mM NaCl; 0.5% BSA; 0.05% bovine Ig; 0.05% NaN3; 0.01% Tween-20) was added and incubated for 1.5 hr at room temperature. The plates were then washed five times with TTBS and tapped dry. Subsequently, 100 μl of DELFIA enhancement solution (100 mM acetone-potassium hydrogen phthalate, pH 3.2; 15 mM 2-naphtyltrifluoroacetate; […] tri(n-octyl)-phosphine oxide; 0.1% Triton X-100) was added to each well, and the plates were shaken for 10 min at room temperature. Fluorescence of each sample well was measured at 615 nm using a DELFIA 1234 fluorometer (EG&G Wallac). General procedure and references as described by Wallac are available in “Lanthanide labeling for time-resolved fluorometry”: Wallac publication 1244–1126-03.
smiles,measurement,setting,value
CC(C)C[C@@H]1NC(=O)[C@H](Cc2c[nH]c3ccccc23)NC(=O)CNC(=O)[C@@H]2CCCN2C(=O)[C@H](Cc2c[nH]c3ccccc23)NC(=O)[C@H]([C@@H](C)O)NC(=O)[C@H](C(C)C)NC(=O)[C@H](CCC(N)=O)NC(=O)[C@H](Cc2c[nH]c3ccccc23)NC(=O)[C@H](CO)NC(=O)[C@H](CCC(N)=O)NC(=O)[C@@H](NC(=O)[C@H](CC(C)C)NC(=O)[C@H](CC(=O)O)NC(=O)[C@H](CCCCN)NC(=O)[C@H](Cc2ccc(O)cc2)NC(=O)[C@@H](N)CC(=O)O)CSSC[C@@H](C(=O)N[C@@H](C)C(=O)N[C@@H](CCCCN)C(=O)N[C@@H](CCCCN)C(=O)O)NC(=O)[C@H](Cc2c[nH]c3ccccc23)NC(=O)CNC(=O)[C@H](C)NC1=O [#418] (H-DYKDLCQSWQVTWPGWLAGWCAKK-OH; disulfide 6-21; N-terminus and C-terminus assumed),"affinity for rGHBP, ranking",rGHBP [1],highest affinity
same,binding better than H5WT or bP#445,rGHBP [2],10 times
CC(C)C[C@@H]1NC(=O)[C@H](CCCNC(=N)N)NC(=O)[C@H](CCC(N)=O)NC(=O)[C@@H](NC(=O)[C@H](CC(C)C)NC(=O)[C@H](CC(=O)O)NC(=O)[C@H](CCCCN)NC(=O)[C@H](Cc2ccc(O)cc2)NC(=O)[C@@H](N)CC(=O)O)CSSC[C@@H](C(=O)N[C@@H](C)C(=O)N[C@@H](CCCCN)C(=O)N[C@@H](CCCCN)C(=O)O)NC(=O)[C@H](Cc2c[nH]c3ccccc23)NC(=O)CNC(=O)[C@H](CO)NC(=O)[C@H](CC(C)C)NC(=O)[C@H](Cc2c[nH]c3ccccc23)NC(=O)CNC(=O)[C@@H]2CCCN2C(=O)[C@H](Cc2c[nH]c3ccccc23)NC(=O)CNC(=O)[C@H](C(C)C)NC(=O)CNC1=O [#447],"affinity for rGHBP, ranking",rGHBP [1],highest affinity
same,binding better than H5WT or bP#445,rGHBP [2],10 times
